ChEMBL document CHEMBL5291721, “A preclinical secondary pharmacology resource illuminates target-adverse drug reaction associations of marketed drugs” (Nat Commun, 2023)

Key:
Estrogen receptor [1] = biological target: T1, Estrogen receptor (Homo sapiens, UniProt P03372); assay type: functional
T1 sequence (P03372 whole entry): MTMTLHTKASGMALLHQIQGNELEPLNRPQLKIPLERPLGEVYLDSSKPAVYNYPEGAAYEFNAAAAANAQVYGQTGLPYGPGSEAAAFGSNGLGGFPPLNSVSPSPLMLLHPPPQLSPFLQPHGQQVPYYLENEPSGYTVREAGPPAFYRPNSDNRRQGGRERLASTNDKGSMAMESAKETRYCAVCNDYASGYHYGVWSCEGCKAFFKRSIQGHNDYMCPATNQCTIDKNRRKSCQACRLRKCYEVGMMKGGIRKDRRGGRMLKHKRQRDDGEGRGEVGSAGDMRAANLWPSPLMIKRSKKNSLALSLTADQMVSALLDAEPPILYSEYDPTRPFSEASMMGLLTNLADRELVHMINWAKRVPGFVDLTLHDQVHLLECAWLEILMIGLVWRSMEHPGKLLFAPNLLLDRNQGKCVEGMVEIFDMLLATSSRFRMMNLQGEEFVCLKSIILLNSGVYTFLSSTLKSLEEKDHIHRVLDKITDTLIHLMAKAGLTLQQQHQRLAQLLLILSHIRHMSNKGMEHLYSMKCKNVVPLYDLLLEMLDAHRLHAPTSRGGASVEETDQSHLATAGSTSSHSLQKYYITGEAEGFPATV

D(1A) dopamine receptor [2] = biological target: T2, D(1A) dopamine receptor (Homo sapiens, UniProt P21728)
T2 sequence (P21728 whole entry): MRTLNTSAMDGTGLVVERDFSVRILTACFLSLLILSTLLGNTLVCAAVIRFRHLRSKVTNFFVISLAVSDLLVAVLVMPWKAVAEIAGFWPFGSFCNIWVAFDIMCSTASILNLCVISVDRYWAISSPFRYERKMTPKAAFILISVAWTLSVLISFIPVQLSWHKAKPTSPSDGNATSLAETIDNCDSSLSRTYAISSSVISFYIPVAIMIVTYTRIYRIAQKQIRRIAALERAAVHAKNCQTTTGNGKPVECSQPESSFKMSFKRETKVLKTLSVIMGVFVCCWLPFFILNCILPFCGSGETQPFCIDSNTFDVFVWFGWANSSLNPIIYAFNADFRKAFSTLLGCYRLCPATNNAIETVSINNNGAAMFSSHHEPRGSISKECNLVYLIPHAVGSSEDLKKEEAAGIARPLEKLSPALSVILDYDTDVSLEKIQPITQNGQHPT

Substance-P receptor = Substance-P receptor (Homo sapiens, UniProt P25103)
Substance-P receptor, sequence (P25103 whole entry): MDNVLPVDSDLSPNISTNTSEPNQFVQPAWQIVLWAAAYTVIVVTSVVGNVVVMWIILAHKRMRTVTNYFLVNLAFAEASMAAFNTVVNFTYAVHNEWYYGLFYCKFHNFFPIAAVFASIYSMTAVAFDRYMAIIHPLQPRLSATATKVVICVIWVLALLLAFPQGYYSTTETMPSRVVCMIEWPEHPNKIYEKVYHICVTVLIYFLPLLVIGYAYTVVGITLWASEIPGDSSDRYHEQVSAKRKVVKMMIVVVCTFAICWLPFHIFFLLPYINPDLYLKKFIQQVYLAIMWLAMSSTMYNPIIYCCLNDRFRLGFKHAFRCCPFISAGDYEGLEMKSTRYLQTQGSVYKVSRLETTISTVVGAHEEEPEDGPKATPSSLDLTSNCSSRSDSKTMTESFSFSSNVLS

Glucocorticoid receptor [3] = biological target: T3, Glucocorticoid receptor (Homo sapiens, UniProt P04150); assay type: functional
T3 sequence (P04150 whole entry): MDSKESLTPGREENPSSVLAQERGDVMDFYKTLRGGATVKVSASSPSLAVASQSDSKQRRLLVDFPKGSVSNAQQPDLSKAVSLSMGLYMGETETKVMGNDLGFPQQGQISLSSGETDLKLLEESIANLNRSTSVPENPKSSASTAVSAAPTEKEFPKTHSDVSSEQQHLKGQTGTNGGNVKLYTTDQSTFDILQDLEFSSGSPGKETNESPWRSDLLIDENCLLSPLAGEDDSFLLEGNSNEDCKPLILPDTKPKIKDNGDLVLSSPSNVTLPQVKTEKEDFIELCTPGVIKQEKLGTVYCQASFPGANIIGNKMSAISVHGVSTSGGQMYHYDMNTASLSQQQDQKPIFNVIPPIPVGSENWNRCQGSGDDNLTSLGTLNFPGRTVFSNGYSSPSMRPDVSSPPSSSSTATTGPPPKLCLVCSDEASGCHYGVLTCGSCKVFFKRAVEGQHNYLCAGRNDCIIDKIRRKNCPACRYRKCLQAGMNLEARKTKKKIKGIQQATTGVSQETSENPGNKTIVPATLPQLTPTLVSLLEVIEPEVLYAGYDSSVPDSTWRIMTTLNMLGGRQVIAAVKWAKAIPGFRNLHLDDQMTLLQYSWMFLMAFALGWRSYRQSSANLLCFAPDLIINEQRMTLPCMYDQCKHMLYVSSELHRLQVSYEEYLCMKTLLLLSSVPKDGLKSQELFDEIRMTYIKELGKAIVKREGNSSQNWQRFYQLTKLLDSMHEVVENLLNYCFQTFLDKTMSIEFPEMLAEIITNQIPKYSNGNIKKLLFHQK

Estrogen receptor [4] = biological target: T1, Estrogen receptor; assay type: functional; remark: listed apart in the source
Glucocorticoid receptor [5] = biological target: T3, Glucocorticoid receptor; assay type: functional; remark: listed apart in the source
[6] = biological target: T4, Alpha-2A adrenergic receptor (Homo sapiens, UniProt P08913)
T4 sequence (P08913 whole entry): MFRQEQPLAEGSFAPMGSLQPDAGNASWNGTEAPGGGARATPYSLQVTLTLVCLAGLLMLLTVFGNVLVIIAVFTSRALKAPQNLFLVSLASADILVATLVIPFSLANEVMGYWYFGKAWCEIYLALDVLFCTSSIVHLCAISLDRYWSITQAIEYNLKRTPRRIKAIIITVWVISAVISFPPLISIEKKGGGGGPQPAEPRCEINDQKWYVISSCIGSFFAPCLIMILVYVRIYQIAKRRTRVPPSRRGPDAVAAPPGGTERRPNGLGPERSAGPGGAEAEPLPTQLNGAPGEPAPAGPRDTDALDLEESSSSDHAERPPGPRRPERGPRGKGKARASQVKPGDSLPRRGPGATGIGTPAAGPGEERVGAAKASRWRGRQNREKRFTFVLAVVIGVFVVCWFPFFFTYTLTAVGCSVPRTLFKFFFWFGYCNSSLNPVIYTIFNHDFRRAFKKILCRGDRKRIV

[7] = biological target: Sodium channel protein type 5 subunit alpha (Homo sapiens, UniProt Q14524); assay type: functional, cell-based
Sodium channel protein type 5 subunit alpha, sequence (Q14524 whole entry): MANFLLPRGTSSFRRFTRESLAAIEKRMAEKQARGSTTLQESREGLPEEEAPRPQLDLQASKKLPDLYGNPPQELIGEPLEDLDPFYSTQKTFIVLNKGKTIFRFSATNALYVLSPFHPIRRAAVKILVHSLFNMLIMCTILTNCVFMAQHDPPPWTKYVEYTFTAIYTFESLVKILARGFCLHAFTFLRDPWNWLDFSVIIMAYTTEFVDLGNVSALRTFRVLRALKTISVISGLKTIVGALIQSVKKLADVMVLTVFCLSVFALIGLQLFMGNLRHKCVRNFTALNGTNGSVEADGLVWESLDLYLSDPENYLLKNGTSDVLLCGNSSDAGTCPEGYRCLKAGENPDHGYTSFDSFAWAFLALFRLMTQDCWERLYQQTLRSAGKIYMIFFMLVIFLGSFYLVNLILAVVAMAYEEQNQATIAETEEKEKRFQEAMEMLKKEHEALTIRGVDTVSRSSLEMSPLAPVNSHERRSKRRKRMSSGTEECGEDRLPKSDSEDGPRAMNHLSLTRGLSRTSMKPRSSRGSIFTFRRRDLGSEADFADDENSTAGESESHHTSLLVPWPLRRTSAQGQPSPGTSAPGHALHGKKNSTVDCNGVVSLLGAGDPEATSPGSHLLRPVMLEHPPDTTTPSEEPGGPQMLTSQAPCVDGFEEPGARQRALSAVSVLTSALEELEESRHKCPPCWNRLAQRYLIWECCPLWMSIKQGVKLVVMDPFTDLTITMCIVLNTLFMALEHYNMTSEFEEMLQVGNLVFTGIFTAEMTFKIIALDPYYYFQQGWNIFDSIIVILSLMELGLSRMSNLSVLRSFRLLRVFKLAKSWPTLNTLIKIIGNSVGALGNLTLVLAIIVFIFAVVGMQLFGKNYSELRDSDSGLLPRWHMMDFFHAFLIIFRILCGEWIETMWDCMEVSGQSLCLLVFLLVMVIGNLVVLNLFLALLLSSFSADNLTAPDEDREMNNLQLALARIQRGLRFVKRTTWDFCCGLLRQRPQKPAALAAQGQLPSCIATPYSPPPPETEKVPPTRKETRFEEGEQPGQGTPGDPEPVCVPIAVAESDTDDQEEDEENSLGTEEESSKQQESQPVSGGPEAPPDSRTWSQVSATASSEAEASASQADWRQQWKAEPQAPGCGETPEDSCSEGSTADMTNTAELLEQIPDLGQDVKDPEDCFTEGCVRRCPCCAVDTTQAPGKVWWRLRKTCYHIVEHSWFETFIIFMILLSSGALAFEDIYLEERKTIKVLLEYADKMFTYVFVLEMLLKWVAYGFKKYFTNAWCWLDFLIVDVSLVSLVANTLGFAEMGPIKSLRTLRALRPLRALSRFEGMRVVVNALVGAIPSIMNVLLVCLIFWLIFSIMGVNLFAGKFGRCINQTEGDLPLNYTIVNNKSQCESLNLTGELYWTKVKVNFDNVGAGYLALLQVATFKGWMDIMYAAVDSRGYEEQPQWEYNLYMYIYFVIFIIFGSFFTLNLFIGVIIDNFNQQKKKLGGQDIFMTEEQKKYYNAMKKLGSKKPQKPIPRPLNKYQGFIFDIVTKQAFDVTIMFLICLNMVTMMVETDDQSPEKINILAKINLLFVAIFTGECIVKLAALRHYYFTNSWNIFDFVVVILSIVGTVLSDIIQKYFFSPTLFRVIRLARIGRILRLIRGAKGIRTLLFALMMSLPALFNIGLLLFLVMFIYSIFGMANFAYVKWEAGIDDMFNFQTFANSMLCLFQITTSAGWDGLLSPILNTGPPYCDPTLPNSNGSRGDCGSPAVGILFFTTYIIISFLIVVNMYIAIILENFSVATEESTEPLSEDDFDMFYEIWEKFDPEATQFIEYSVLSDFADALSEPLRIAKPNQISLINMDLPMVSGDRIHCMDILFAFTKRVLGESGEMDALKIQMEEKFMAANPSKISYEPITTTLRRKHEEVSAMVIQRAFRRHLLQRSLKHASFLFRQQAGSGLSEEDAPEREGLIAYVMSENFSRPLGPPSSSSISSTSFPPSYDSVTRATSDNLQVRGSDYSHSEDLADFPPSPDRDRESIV

[8] = biological target: 5-hydroxytryptamine receptor 2B (Homo sapiens, UniProt P41595)
5-hydroxytryptamine receptor 2B, sequence (P41595 whole entry): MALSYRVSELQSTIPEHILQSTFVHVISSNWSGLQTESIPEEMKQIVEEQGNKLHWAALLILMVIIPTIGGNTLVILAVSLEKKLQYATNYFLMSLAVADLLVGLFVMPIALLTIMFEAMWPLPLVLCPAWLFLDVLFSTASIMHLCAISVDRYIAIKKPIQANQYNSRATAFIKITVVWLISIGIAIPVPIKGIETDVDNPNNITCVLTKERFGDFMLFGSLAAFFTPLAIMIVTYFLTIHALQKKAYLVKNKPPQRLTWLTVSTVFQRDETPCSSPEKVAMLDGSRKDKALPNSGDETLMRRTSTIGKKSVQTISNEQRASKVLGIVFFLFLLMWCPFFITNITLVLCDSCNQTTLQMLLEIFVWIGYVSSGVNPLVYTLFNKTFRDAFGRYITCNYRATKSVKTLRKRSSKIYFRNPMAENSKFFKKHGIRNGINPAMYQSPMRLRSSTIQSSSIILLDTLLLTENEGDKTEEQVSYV

[9] = biological target: 5-hydroxytryptamine receptor 6 (Homo sapiens, UniProt P50406)
5-hydroxytryptamine receptor 6, sequence (P50406 whole entry): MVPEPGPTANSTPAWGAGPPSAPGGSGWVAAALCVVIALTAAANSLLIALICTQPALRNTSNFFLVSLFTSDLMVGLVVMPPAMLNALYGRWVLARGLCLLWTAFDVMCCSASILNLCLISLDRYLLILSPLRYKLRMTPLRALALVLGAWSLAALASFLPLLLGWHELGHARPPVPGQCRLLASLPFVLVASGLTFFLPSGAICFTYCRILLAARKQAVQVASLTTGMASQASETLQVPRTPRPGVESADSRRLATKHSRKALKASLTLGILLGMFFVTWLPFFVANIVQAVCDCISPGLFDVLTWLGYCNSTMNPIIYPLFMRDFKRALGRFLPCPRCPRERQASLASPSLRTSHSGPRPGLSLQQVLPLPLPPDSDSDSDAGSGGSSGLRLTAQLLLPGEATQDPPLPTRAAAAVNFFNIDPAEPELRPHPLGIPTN

[10] = biological target: Synaptic vesicular amine transporter (Rattus norvegicus, UniProt Q01827); assay type: functional
D(1A) dopamine receptor [11] = biological target: T2, D(1A) dopamine receptor; remark: listed apart in the source
[12] = biological target: Vascular endothelial growth factor receptor 2 (Homo sapiens, UniProt P35968); assay type: functional
Thromboxane A2 receptor = biological target: T5, Thromboxane A2 receptor (Homo sapiens, UniProt P21731); assay type: functional, cell-based
T5 sequence (P21731 whole entry): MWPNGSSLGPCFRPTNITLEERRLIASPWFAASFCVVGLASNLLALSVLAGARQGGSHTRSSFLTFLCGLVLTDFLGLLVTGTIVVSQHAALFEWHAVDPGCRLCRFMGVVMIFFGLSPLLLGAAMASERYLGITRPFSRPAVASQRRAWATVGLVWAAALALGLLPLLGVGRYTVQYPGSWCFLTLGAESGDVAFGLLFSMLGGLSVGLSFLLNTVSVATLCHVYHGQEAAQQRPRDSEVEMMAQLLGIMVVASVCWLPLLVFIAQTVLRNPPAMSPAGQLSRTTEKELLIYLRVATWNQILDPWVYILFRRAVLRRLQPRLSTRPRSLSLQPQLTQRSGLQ

[13] = biological target: Epidermal growth factor receptor (Homo sapiens, UniProt P00533); assay type: functional
Epidermal growth factor receptor, sequence (P00533 whole entry): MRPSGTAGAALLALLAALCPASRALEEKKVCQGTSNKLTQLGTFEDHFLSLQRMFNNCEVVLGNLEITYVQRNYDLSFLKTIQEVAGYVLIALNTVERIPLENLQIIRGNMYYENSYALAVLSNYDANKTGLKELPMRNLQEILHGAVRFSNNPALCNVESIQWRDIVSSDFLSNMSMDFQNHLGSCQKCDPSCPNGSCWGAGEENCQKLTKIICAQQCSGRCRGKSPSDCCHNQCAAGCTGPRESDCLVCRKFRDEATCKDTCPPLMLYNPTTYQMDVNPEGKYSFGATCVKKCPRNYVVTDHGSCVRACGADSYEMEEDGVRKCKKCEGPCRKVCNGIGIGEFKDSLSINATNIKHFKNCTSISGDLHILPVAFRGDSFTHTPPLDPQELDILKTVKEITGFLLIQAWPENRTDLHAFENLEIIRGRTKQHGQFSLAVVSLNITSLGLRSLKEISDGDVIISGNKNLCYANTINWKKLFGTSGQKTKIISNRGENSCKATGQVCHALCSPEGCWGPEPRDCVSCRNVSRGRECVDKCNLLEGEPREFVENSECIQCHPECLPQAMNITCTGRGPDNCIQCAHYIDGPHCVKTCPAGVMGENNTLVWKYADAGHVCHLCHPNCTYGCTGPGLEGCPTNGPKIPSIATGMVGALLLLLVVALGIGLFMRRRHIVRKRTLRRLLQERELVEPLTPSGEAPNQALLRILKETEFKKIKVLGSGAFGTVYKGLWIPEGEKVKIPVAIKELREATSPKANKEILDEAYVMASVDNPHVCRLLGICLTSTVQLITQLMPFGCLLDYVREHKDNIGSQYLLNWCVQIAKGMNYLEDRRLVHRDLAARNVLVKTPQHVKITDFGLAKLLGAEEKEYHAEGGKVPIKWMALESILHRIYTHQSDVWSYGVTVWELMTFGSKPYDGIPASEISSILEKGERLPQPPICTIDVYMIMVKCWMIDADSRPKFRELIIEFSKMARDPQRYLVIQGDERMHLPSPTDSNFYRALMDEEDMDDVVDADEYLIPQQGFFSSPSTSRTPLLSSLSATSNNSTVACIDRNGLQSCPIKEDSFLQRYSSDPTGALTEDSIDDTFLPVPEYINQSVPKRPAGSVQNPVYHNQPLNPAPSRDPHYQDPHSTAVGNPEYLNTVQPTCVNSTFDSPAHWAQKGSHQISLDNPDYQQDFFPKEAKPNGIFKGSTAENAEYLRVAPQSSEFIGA
Further: assay procedure not described here.

Compound | AC50 (Estrogen receptor [1]) [µM] | AC50 (D(1A) dopamine receptor [2]) [µM] | AC50 (Glucocorticoid receptor [3]) [µM] | AC50 (Estrogen receptor [4]) [µM] | AC50 (Glucocorticoid receptor [5]) [µM] | AC50 [6] [µM] | AC50 [8] [µM] | also measured
CCOc1nc2cccc(C(=O)O)c2n1Cc1ccc(-c2ccccc2-c2nnn[nH]2)cc1 | > 30 | > 10 | > 30 | > 30 | > 30 | > 10 | > 10 | AC50 (Substance-P receptor): > 10 µM; AC50 [7]: > 50 µM; AC50 [9]: > 10 µM
CCCc1nc2c(C)cc(-c3nc4ccccc4n3C)cc2n1Cc1ccc(-c2ccccc2C(=O)O)cc1 | > 30 | > 10 | > 30 | > 30 | > 30 | > 30 | > 10 | AC50 (Substance-P receptor): > 10 µM; AC50 [7]: 27.3 µM; AC50 [9]: > 10 µM
O=C(O)c1ccccc1 [BENZOIC ACID] |  |  |  |  |  |  |  | AC50 [10]: 18 µM; AC50 [7]: > 50 µM
Nc1c(CC(=O)O)cccc1C(=O)c1ccc(Br)cc1 [BROMFENAC] |  |  |  |  |  |  |  | AC50 (D(1A) dopamine receptor [11]): > 30 µM
Cc1nnc(SCC2=C(C(=O)O)N3C(=O)[C@@H](NC(=O)Cn4cnnn4)[C@H]3SC2)s1 [CEFAZOLIN] | > 300 |  |  | > 300 |  |  |  | AC50 [12]: > 300 µM; AC50 (Thromboxane A2 receptor): > 300 µM; AC50 [13]: > 300 µM
CC(C)NC(=N)NC(=N)Nc1ccc(Cl)c(Cl)c1 [CHLORPROGUANIL] |  |  |  |  |  |  |  | AC50 (D(1A) dopamine receptor [11]): > 30 µM
Clc1ccc(Cn2c(CN3CCCC3)nc3ccccc32)cc1 [CLEMIZOLE] |  |  | > 30 |  | > 30 |  |  | AC50 [12]: > 30 µM; AC50 (Thromboxane A2 receptor): > 10 µM; AC50 [13]: > 30 µM
CCC(=O)O[C@]1(C(=O)CCl)[C@@H](C)C[C@H]2[C@@H]3CCC4=CC(=O)C=C[C@]4(C)[C@@]3(F)[C@@H](O)C[C@@]21C [CLOBETASOL PROPIONATE] | > 30 |  |  | > 30 |  |  |  | 
Cc1nc(Nc2ncc(C(=O)Nc3c(C)cccc3Cl)s2)cc(N2CCN(CCO)CC2)n1 [DASATINIB] |  | > 10 |  |  |  | > 10 | 7.6 | AC50 [9]: > 10 µM
CC(C)Cc1ccc([C@H](C)C(=O)O)cc1 [DEXIBUPROFEN] | > 30 |  | > 30 | > 30 | > 30 |  |  | 
O=C(O)Cc1ccccc1Nc1c(Cl)cccc1Cl [DICLOFENAC] |  | > 10 |  |  |  | > 10 | > 10 | AC50 (Substance-P receptor): > 10 µM; AC50 [7]: > 30 µM; AC50 [9]: > 10 µM
CN[C@@H]1[C@H](O[C@H]2[C@H](O[C@H]3[C@H](O)[C@@H](O)[C@H](NC(=N)N)[C@@H](O)[C@@H]3NC(=N)N)O[C@@H](C)[C@]2(O)CO)O[C@@H](CO)[C@H](O)[C@H]1O [DIHYDROSTREPTOMYCIN] |  |  |  |  |  |  |  | AC50 (D(1A) dopamine receptor [11]): > 30 µM
CNC[C@H](O)c1ccc(O)c(O)c1 [EPINEPHRINE] | > 30 |  |  | > 30 |  |  |  | 
O=C(O)Cc1ccccc1Oc1ccc(Cl)cc1Cl [FENCLOFENAC] |  | > 10 |  |  |  | > 10 | > 10 | AC50 (Substance-P receptor): > 10 µM
Cc1onc(-c2c(F)cccc2Cl)c1C(=O)N[C@@H]1C(=O)N2[C@@H]1SC(C)(C)[C@@H]2C(=O)O [FLOXACILLIN] |  |  | > 30 |  | > 30 |  |  | AC50 [12]: > 30 µM; AC50 (Thromboxane A2 receptor): > 30 µM; AC50 [13]: > 30 µM
